# According to patent US20120142015A1, “GFP FUSION PROTEINS AND THEIR USE” (The Board of Trustees of The University of Illinois, priority 2001, published 2012):
# Assays:
# Gαs-GFP [1] = format: cell-based
# β-adrenergic receptor = test: cell-based or functional assay
# Gαs-GFP [2] = format: cell-based; remark: listed apart in the source
# [3] = living cells transfected with Gαs-GFP
compound,measurement,setting,value
CC(C)NCC(O)c1ccc(O)c(O)c1 (centres unmarked) [isoproterenol],cells showing internalized Gαs-GFP in response to isoproterenol,"Gαs-GFP [1]; isoproterenol 20 μM, COS cells, 37° C., 58 cells in 15 experiments",Approximately 70%
same,release of Gαs-GFP from plasma membrane into the cytoplasm,Gαs-GFP [1]; [3],rapid partial release of Gαs-GFP into the cytoplasm
same,time after treatment at which extent of Gαs-GFP release from plasma membrane was maximal,Gαs-GFP [1]; [3],1 min
Gαs-GFP fusion protein (GFP inserted within the internal amino acid sequence of long Gαs),percent of cells with internalized Gαs-GFP in response to isoproterenol (20 µM),β-adrenergic receptor,70%
cholera toxin,displacement of Gαs-GFP from the plasma membrane,Gαs-GFP [2],gradual displacement of Gαs-GFP from the plasma membrane throughout the cytoplasm
